Source: PMC11350809, “Targeting N-Acetylglucosaminidase in Staphylococcus aureus with Iminosugar Inhibitors” (Antibiotics, 2024)
Converted amounts (≈) assume the structure as drawn. “Also recorded” adds a separate entry of the source. Read-outs that look alike come from different tables or passages of the source.

What was measured:
autolysin E (AtlE) = autolysin E (AtlE) (Staphylococcus aureus, UniProt A0A0H3JT72); test: Surface plasmon resonance (SPR) binding to immobilized AtlE; settings: for maximal SPR response compared with the maximal theoretical response: theoretical response calculated from molecular masses of AtlE and compound, surfactant P20 in running buffer
autolysin E (AtlE), sequence (A0A0H3JT72 entry or part of it): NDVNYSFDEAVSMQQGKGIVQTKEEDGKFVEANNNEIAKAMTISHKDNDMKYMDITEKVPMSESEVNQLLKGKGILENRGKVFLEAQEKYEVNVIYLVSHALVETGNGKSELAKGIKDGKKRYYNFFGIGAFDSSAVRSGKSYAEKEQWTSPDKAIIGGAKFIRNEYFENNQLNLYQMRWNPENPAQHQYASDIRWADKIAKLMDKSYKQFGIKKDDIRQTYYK
Experimental: The potential inhibitory effect of compounds that bind to AtlE was measured using surface plasmon resonance (SPR). The protein was covalently attached to the surface of the CM5 sensor chip (5200 response units (RU)). The compounds were prepared as 20 mM stock solutions in DMSO and diluted with HEPES running buffer with 2.5% DMSO. Some compounds were less soluble, which was also predicted by the in silico programs and QSAR models for aqueous solubility (see Supplementary Table S3).
The binding of iminosugars was recorded and analyzed using the Biacore T200 3.2.1 software v3.2.1 Evaluation (for results, see Table 1). […] Therefore, for further testing of AtlE binding, the iminosugar derivatives with a lipophilic tail were chosen (1,5-dideoxy-1,5-imino-D-xylitol derivatives (DIX)).
Three compounds, 1, 3 and 8, were identified as AtlE binders. Two of them, 1 and 3, were titrated at eight different concentrations, while compound 8 was titrated firstly at six different concentrations (Figure 4a) and secondly at seven concentrations (Figure S2). The equilibrium dissociation constant KD was estimated using the 1:1 steady-state affinity binding model, with the graphs showing the response units as a function of inhibitor concentration (Figure 4b). […] The maximal theoretical response was calculated using the molecular masses of AtlE and the compounds, respectively. […] Due to the amphiphilicity of the compounds with a hydrophilic sugar unit in the head and a hydrophobic fatty acid residue in the tail, we can assume that both compounds can form oligomeric micelles. To prevent the formation of micelles, we added a surfactant P20 to the running buffer, but the maximum theoretical binding to AtlE was not reached for compounds 1 and 3. This brings into question the true nature of their binding and should be verified by another independent method.
Figure 4 (a) Representative SPR sensorgrams (response curves) and (b) representative saturation curves with evaluated KD for compounds 1, 3 and 8 at different concentrations. SPR analysis of compound 1, 3 and 8 interactions with the immobilized AtlE. Compounds were injected across immobilized AtlE in serial dilutions for 60 s at a rate of […], and the dissociation was followed for 50 s. Sensorgrams are shown along with the apparent equilibrium dissociation constant (KD) determined from the response curves as a function of the compound concentration injected across AtlE. KD values are the mean ± standard deviation of three titrations. The data were fitted to the steady-state affinity binding model.
Surface plasmon resonance (SPR) experiments were performed at 25 °C using a Biacore T200 (Biacore, GE Healthcare, Uppsala, Sweden) instrument with Series S sensor chip CM5 (GE Healthcare). […]

S. aureus (ATCC 29213) = test: Minimal inhibitory concentration, broth microdilution; assay type: cell-based, Staphylococcus aureus; settings: for MIC: Staphylococcus aureus, ATCC29213, broth microdilution, 20 h at 35 °C, read-out: MIC S. aureus ATCC29213
Experimental: (§1) The minimal inhibitory concentrations (MICs) were determined against the bacterial strains S. aureus (ATCC 29213) and E. coli (ATCC 25922), and the results are presented in Table S6.
(§2) Antimicrobial testing was carried out by the broth microdilution method in a 96-well plate format following the CLSI guidelines and European Committee for Antimicrobial Susceptibility Testing (EUCAST) recommendations. Bacterial suspension of a specific bacterial strain equivalent to 0.5 McFarland turbidity standard was diluted with cation-adjusted Mueller Hinton broth to obtain a final inoculum of 10^5 CFU/mL. Compounds dissolved in 20% DMSO and inoculum were mixed together and incubated for 20 h at 35 °C. After incubation, the minimal inhibitory concentration (MIC) values were determined by visual inspection as the lowest dilution of compounds showing no turbidity. The MICs were determined against S. aureus (ATCC 29213) and E. coli (ATCC 25922) bacterial strains. Tetracycline was used as a positive control on every assay plate, showing MICs of 0.5 µg/mL and 1 µg/mL for S. aureus and E. coli, respectively.

E. coli (ATCC 25922) = test: Minimal inhibitory concentration, broth microdilution (negative control strain); assay type: cell-based; settings: Escherichia coli, ATCC25922; broth microdilution, 20 h at 35 °C; read-out: MIC E. coli ATCC25922
Experimental: as §1, §2

[1] = target: α-Glucosidase (from baker's yeast); settings: cited from earlier work
[2] = target: α-Galactosidase (from green coffee beans); settings: cited from earlier work
[3] = target: β-Glucosidase (from almond); settings: cited from earlier work
[4] = target: β-Galactosidase (from bovine liver); settings: cited from earlier work
naringinase (Nar) = settings: cited from earlier work
[5] = target: human recombinant β-glucocerebrosidase (GBA); settings: cited from earlier work
[6] = target: β-galactocerebrosidase (GALC); settings: cited from earlier work
[7] = pH 7.2, p-nitrophenyl-a-d-glucopyranoside, footnote **
[8] = pH 6.8, p-nitrophenyl-a-d-galactopyranoside, footnote **
[9] = pH 5.0, p-nitrophenyl-b-d-glucopyranoside, footnote **
[10] = pH 5.2, footnote **, read-out: IC50 GBA pH 5.2
[11] = pH 7.0, footnote **, read-out: IC50 GBA pH 7.0

CCCCCCCCCCNC(=N)N1CC(O)C(O)C(O)C1 (stereo not drawn) [Compound 3]
maximal SPR response compared with the maximal theoretical response (autolysin E (AtlE)): higher maximal response than expected; also recorded: higher than expected maximum response
MIC (S. aureus (ATCC 29213)): 500 µM (≈ 158 µg/mL)
MIC (E. coli (ATCC 25922)): > 500 µM
IC50 [1, 7]: > 100 µM
IC50 [2, 8]: > 100 µM
IC50 [3, 9]: 26 ± 0.9 µM
IC50 ([4]; footnote **): 2.7 ± 0.2 µM
IC50 (naringinase (Nar); footnote **): 41.5 ± 0.2 µM
IC50 human recombinant β-glucocerebrosidase ([5]; in words): low nanomolar range
IC50 [5, 10]: 0.09 ± 0.01 µM
IC50 [5, 11]: 0.03 ± 0.01 µM
IC50 ([6]; footnote **): > 10 µM

CCCCCCCCCCCCCCN=C1OCC2C(O)C(O)C(O)CN12 (stereo not drawn) [Compound 1]
maximal SPR response compared with the maximal theoretical response (autolysin E (AtlE)): higher maximal response than expected; also recorded: higher than expected maximum response
MIC (S. aureus (ATCC 29213)): 8 µM (≈ 3.08 µg/mL)
antibacterial activity against S. aureus ATCC 29213 (S. aureus (ATCC 29213); in words): modest antibacterial activities
MIC (E. coli (ATCC 25922)): 125 µM (≈ 48.1 µg/mL)
IC50 ([1]; pH 7.2, p-nitrophenyl-α-D-glucopyranoside, footnote *): > 100 µM
IC50 ([2]; pH 6.8, p-nitrophenyl-α-D-galactopyranoside, footnote *): > 100 µM
IC50 ([3]; pH 5.0, p-nitrophenyl-β-D-glucopyranoside, footnote *): 0.7 ± 0.03 µM
IC50 ([4]; footnote *): 0.1 ± 0.03 µM
IC50 (naringinase (Nar); footnote *): 0.2 ± 0.01 µM
IC50 human recombinant β-glucocerebrosidase ([5]; in words): low nanomolar range
IC50 ([5]; pH 5.2, footnote *, read-out: IC50 GBA pH 5.2): 0.02 ± 0.001 µM
IC50 ([5]; pH 7.0, footnote *, read-out: IC50 GBA pH 7.0): 0.001 ± 0.001 µM
IC50 ([6]; footnote *): > 10 µM

CCCCCCCCCCNC(=O)N1CC(O)C(O)C(O)C1 (stereo not drawn) [Compound 8]
maximal SPR response compared with the maximal theoretical response (autolysin E (AtlE)): achieved the expected maximal theoretical response; also recorded: expected maximum theoretical response was not exceeded
MIC (S. aureus (ATCC 29213)): > 500 µM
MIC (E. coli (ATCC 25922)): > 500 µM
IC50 [1, 7]: > 100 µM
IC50 [2, 8]: > 100 µM
IC50 [3, 9]: > 100 µM
IC50 ([4]; footnote **): 10.4 ± 0.9 µM
IC50 (naringinase (Nar); footnote **): > 100 µM
inhibitor of β-glucocerebrosidase ([5]; in words, previous studies): not as an inhibitor of β-glucocerebrosidase
binding of human recombinant β-glucocerebrosidase ([5]; in words): no binding of this enzyme was observed
IC50 [5, 10]: > 10 µM
IC50 [5, 11]: > 10 µM
IC50 ([6]; footnote **): > 10 µM

OC[C@H]1NC[C@H](O)[C@@H](O)[C@@H]1O [1-deoxynojirimycin, reference compound]
binding of AtlE (SPR) (autolysin E (AtlE); tested at 100 µM and 1 mM): no binding of AtlE; also recorded: did not inhibit AtlE
